Consider seven molecules from publication PMC7774326, “Inhibition of Soybean 15-Lipoxygenase and Human 5-Lipoxygenase by Extracts of Leaves, Stem Bark, Phenols and Catechols Isolated From Lithraea caustica (Anacardiaceae)” (Frontiers in Pharmacology, 2020).

Like-named read-outs stand apart in the source and are kept apart here. Some results are limits rather than exact numbers.

The target in assay [1] is T1, 15 soybean lipoxygenase (15-sLOX) (Glycine max, UniProt P08170).
T1 construct: purchased Cayman Chemical 60712
T1 sequence (P08170 1-839): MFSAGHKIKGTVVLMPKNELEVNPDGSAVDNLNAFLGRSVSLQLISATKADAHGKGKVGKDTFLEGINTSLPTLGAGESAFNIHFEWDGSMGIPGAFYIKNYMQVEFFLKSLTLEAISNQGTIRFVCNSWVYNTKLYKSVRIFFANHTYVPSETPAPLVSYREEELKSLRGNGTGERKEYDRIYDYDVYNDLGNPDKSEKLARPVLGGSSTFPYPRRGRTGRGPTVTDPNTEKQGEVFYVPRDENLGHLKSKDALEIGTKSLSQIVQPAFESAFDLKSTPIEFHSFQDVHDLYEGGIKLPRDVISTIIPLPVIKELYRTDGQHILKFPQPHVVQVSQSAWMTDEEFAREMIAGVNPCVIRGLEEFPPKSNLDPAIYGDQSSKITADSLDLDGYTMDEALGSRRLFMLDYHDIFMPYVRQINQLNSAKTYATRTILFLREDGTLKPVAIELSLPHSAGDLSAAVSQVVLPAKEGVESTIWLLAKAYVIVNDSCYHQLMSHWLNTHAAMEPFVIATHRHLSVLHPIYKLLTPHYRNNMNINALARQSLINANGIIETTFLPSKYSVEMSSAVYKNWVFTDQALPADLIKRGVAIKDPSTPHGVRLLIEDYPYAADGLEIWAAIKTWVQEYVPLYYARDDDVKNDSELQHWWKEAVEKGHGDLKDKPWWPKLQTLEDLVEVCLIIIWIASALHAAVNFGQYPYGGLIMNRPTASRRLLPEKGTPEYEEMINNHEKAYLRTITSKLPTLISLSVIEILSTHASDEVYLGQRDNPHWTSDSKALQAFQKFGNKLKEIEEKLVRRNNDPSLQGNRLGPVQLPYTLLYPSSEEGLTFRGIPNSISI
The assay can be described thus: In vitro assay of 15 soybean lipoxygenase inhibition. The class given is biochemical. The method, then:
Assays of inhibition of 15-sLOX were performed using a previous published methodology ([Tirapegui et al., 2017]), with minor modifications. In shortly, the activity of 15-sLOX (Cayman Chemical Item No. 60712) was determined following the formation of reaction products at 234 nm (ε = 25,000 M^−1cm^−1) with a Perkin-Elmer Lambda 25 UV/Vis (LabMakelaar Benelux B.V. Zuid-Holland, Nederland). All reactions were performed at a final volume of 2 ml and stirred using a magnetic bar at room temperature. The reaction medium used contained 0.1 M HEPES buffer (pH 7.4), Triton X-100 0.01%, and the linoleic acid substrate at a 10 μM concentration determine preliminary percent inhibition (% I). The concentration was determined quantitatively by allowing the enzymatic reaction to go to completion. The reaction was carried out by adding the inhibitor (sample) in methanol to the cuvette with the substrate buffer, and finally the enzyme was added. Nordihydroguaiaretic acid was used as positive control. Assays were performed in duplicate on two different days. IC50 values were determined by measuring enzyme activity at different concentrations of inhibitor dissolved in methanol; in the range of the initial velocity of the enzyme reaction. Finally, the inhibition% vs. the inhibitor concentration was plotted, giving a hyperbolic saturation curve using GraphPad Prism Demo.

Assay [2] deals with T2, 5 human lipoxygenase (5-hLOX) (Homo sapiens, UniProt P09917).
T2 construct: purchased Cayman Chemical 60402
T2 sequence (P09917 1-674): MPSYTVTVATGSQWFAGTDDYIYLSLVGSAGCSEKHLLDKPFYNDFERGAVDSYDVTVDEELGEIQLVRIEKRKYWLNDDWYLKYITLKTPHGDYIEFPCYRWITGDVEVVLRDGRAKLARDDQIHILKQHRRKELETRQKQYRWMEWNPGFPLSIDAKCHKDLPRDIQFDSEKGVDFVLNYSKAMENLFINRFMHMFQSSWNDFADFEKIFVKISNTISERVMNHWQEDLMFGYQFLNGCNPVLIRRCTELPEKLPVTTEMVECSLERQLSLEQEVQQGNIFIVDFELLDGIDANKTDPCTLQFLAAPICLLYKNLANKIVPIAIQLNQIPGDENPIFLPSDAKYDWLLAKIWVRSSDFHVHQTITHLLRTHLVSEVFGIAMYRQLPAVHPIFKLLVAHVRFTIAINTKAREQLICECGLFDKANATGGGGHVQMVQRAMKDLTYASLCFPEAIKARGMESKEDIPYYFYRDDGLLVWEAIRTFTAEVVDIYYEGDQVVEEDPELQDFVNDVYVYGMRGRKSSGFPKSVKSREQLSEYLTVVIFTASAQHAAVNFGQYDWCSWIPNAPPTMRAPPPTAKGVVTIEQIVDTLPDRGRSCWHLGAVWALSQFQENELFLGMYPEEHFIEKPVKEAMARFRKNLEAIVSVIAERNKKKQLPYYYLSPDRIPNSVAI
The assay can be described thus: In vitro assay of 5 human lipoxygenase inhibition. The class given is biochemical. The protocol: Assays of inhibition of 5-hLOX were performed using a previous published methodology ([Vásquez-Martínez et al., 2019]), with minor modifications. In shortly, the enzyme (Cayman Chemical Item No. 60402) was diluted (1:500) in the assay buffer (HEPES 50 mM, EDTA 2 mM, ATP 10 μM and CaCl2 10 μM at pH 7.5) and mixed with 10 μM of 2′,7′-dichlorofluorescin diacetate (H2DCFDA) dye. The reaction mixture was incubated for 15 min in the assay plate. Subsequently, 33.3 μl of assay buffer was added per well, and 3.3 μl of inhibitor was added to a final concentration of 10 μM; this reaction mixture was incubated for 30 min. The reaction was started by addition of AA (3.3 μM) and was incubated for 1 h and fluorescence was read in a multimode detector Synergy™ HT Multi-Mode Microplate Reader (Biotek, Winooski, VT, United States) at 480 nm excitation/ 520 nm emission after a reaction that had proceeded for 1 h at room temperature. The IC50 values were obtained using the nonlinear curve- fitting program of Graph Pad Prism Demo.

The subject of a further assay is 5-hLOX. Also on record: method as in Sadik et al., 2003. The following applies: known flavonoid inhibitors of 5-hLOX; ref Sadik et al., 2003; cited from earlier work.
The mark [3] stands for this setting: class symbol NA, read-out: IC50 5-hLOX Inhibition.

Usually IC50 stands for the concentration needed to halve the response being measured. Turning to `CCCCC=CCCCCCCCCCc1cccc(OC(C)=O)c1OC(C)=O` [Compound 4], the IC50 in assay [1] and in assay [2] (setting [3]) was over 124 µM throughout.
As to `CCCCCCCCCCCCCCCc1cccc(O)c1O` [Compound 3, 3-n-pentadecylcatechol], the half-maximal inhibitory concentration (IC50) in assay [1] worked out at 55.3 µM; in assay [2] it was 2.74 µM.
Turning to `O=c1c(O)c(-c2ccc(O)c(O)c2)oc2cc(O)cc(O)c12` [quercetin], the IC50 with 5-hLOX was 0.6 µM.
Turning to `O=C(O[C@@H]1Cc2c(O)cc(O)cc2O[C@@H]1c1cc(O)c(O)c(O)c1)c1cc(O)c(O)c(O)c1` [(−)-epigallocatechin gallate], the IC50 in the assay with 5-hLOX was 3.1 µM.
For `CCCC/C=C\CCCCCCCCCc1cccc(O)c1O` [Compound 2, 3-[(10Z)-pentadec-10′-en-1-yl]-catechol], the IC50 in assay [1] stood at 54.8 µM; in assay [2], 2.09 µM.
Regarding `Oc1cc(O)c2c(c1)O[C@H](c1ccc(O)c(O)c1)[C@H](O)C2` [(−)-epicatechin], in the assay on 5-hLOX, the IC50 is 22 µM.
On to `CCCCCCCCCCCCCCCc1cccc(OC(C)=O)c1OC(C)=O` [Compound 5], for which the IC50 in assay [1] and in assay [2] (setting [3]) was over 124 µM in each case.
